{"source": "patent US20020019336A1", "about": "“Sustained release drug compositions” (priority 2000, published 2002)", "tested_on": "neovascularization", "test": "neovascularization after subcutaneous injection or implantation in rats", "type": "in vivo", "details": "back subcutaneous tissue, seven days after administration, 1 μg bFGF", "method": "The compositions listed in Table 1 below were generated essentially according to Example 9, with modifications as indicated.\nAll compositions, including controls, were injected or implanted into the back subcutaneous tissue of rats. It was known that bFGF promotes neovascularization. Seven days after administration, each rat was evaluated for neovascularization at the area peripheral to the site of injection or implantation.\nTo distinguish newly synthesized blood vessels from pre-existing ones, lipid microspheres were injected into […] just superficial to the pre-existing capillary bed early in the experiment (at day 0). At the end of the experiment, the neovascular capillaries, if any, would reside superficial to the microspheres. Thus, new capillaries were easily identified by seeing whether there was vascularization above (superficial to) the microspheres at the end of the experiment."}
{"substance": "basic fibroblast growth factor [bFGF alone]", "values": [{"measurement": "neovascularization at area peripheral to site of injection or implantation", "result": "no neovascularization"}]}
